Consider 13 molecules from patent US7960556B2, “Thiadiazole derivatives for the treatment of neuro-degenerative diseases” (NV reMYND, priority 2006, dated 2011).

This assay deals with α-synuclein cytotoxicity in M17-SYNwt cells. Put plainly: α-synuclein cytotoxicity assay: LDH leakage from paraquat-treated M17-SYNwt neuroblastoma cells.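 On all read-outs here: paraquat at 32 mM co-added with compound, 40 h exposure, LDH activity released into the culture medium measured, references are DMSO-only cells and paraquat plus DMSO cells.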 As to conditions: Homo sapiens, Neuroblastoma cell; for Emax: read-out: % Inhib. (LDH in the medium is a marker of cell lysis.)

The structures appear in SMILES notation. pEC50: −log10 of the molar value.

As to `O=C(Nc1ccc(F)c(F)c1)N1CCN(c2nc(Cc3ccc(F)cc3)ns2)CC1` [compound 28, N-(3,4-difluorophenyl)-4-[3-(4-fluorobenzyl)-1,2,4-thiadiazol-5-yl]piperazine-1-carboxamide], the Emax stood at 64%. Turning to `COc1cc(NC(=O)N2CCN(c3nc(Cc4ccc(F)cc4)ns3)CC2C)cc(OC)c1` (centres unmarked) [compound 29, N-(3,5-dimethoxyphenyl)-4-[3-(4-fluorobenzyl)-1,2,4-thiadiazol-5-yl]-2-methylpiperazine-1-carboxamide], the Emax came out at 51%. In the case of `CC(C)(C)c1ccc(S(=O)(=O)N2CCN(c3nc(Cc4ccc(F)cc4)ns3)CC2)cc1` [compound 30, 1-[4-tert-butylphenylsulfonyl]-4-[3-(4-fluorobenzyl)-1,2,4-thiadiazol-5-yl]piperazine], the Emax was found to be 51%. In the case of `COc1ccc(S(=O)(=O)N2CCN(c3nc(Cc4ccc(Cl)cc4)ns3)CC2)cc1` [compound 31, 1-[4-methoxyphenylsulfonyl]-4-[3-(4-chlorobenzyl)-1,2,4-thiadiazol-5-yl]piperazine], the pEC50 is 9.77 and the Emax was found to be 59%. In the case of `O=S(=O)(c1ccc(F)cc1)N1CCN(c2nc(Cc3ccc(Cl)cc3)ns2)CC1` [compound 33, 1-[4-fluorophenylsulfonyl]-4-[3-(4-chlorobenzyl)-1,2,4-thiadiazol-5-yl]piperazine], the pEC50 was 8.55 and the Emax turned out to be 53%.

As to `Cc1ccc(Cc2nsc(N3CCN(S(=O)(=O)c4ccc(Cl)cc4)C(C)C3)n2)cc1` (centres unmarked) [compound 34, 1-[4-chlorophenylsulfonyl]-4-[3-(4-methylbenzyl)-1,2,4-thiadiazol-5-yl]-2-methylpiperazine], the pEC50 is 7.18 and the Emax was 66%. Regarding `Cc1ccc(Cc2nsc(N3CCN(S(=O)(=O)c4cccc5ccccc45)CC3)n2)cc1` [compound 35, 1-[1-naphtylsulfonyl]-4-[3-(4-methylbenzyl)-1,2,4-thiadiazol-5-yl]piperazine], the pEC50 is 7.33 and the Emax turned out to be 47%. Take `Cc1ccc(Cc2nsc(N3CCN(S(=O)(=O)c4cc(Cl)ccc4Cl)C(C)C3)n2)cc1` (centres unmarked) [compound 36, 1-[2,5-dichlorophenylsulfonyl]-4-[3-(4-methylbenzyl)-1,2,4-thiadiazol-5-yl]-2-methylpiperazine]: the pEC50 is 7.00 and the Emax came to 52%. For `Cc1ccc(Cc2nsc(N3CCN(S(=O)(=O)c4c(C)cc(C)cc4C)CC3)n2)cc1` [compound 37, 1-[2,4,6-trimethylphenylsulfonyl]-4-[3-(4-methylbenzyl)-1,2,4-thiadiazol-5-yl]piperazine], the pEC50 was 7.14 and the Emax turned out to be 48%. Taken in the same sequence, the figures for `O=S(=O)(c1cc(Cl)ccc1Cl)N1CCN(c2nc(Cc3ccc(Cl)cc3)ns2)CC1` [compound 39, 1-[2,5-dichlorophenylsulfonyl]-4-[3-(4-chlorobenzyl)-1,2,4-thiadiazol-5-yl]piperazine] were 6.80 and 25%. On to `Cc1ccc(Cc2nsc(N3CCN(S(=O)(=O)c4ccc(C(C)(C)C)cc4)C(C)C3)n2)cc1` (centres unmarked) [compound 42, 1-[4-tert-butylphenylsulfonyl]-4-[3-(4-methylbenzyl)-1,2,4-thiadiazol-5-yl]-2-methylpiperazine], for which the pEC50 was 6.06 and the Emax stood at 33%.

Turning to `CC1CN(c2nc(Cc3ccc(Cl)cc3)ns2)CCN1S(=O)(=O)c1cccc2ccccc12` (centres unmarked) [compound 43, 1-[1-naphtylsulfonyl]-4-[3-(4-chlorobenzyl)-1,2,4-thiadiazol-5-yl]-2-methylpiperazine], the pEC50 is 6.05 and the Emax amounted to 35%. Taken in the same sequence, the figures for `COc1cccc(S(=O)(=O)N2CCN(c3nc(Cc4ccc(F)cc4)ns3)CC2)c1` [compound 44, 1-[3-methoxyphenylsulfonyl]-4-[3-(4-fluorobenzyl)-1,2,4-thiadiazol-5-yl]piperazine] were 6.89 and 99%.

Usually pEC50 stands for the EC50 on a negative log10 scale, so that one unit is a factor of ten. A high value points to a low EC50.
